Experimental data as given in US20250009745A1, “CDK INHIBITOR” (SHANGHAI QILU PHARMACEUTICAL RESEARCH AND DEVELOPMENT …, priority 2021, published 2025).

How the values were obtained:
Assay in all cases: CDK enzymology experiment in vitro, capillary mobility shift assay (MSA)
Format in all cases: biochemical
[1] = biological target: T1, CDK6 (Homo sapiens, UniProt Q00534); details: read-out: CDK6 (nM) inhibitory IC50
T1 construct: purchased Carna Company
Description: CDK1/CDK2/CDK4/CDK6/CDK7/CDK9 were purchased from Carna Company; Carliper substrate CTD3/substrate 18/substrate 8 were purchased from Gil Biochemical Company; Dinaciclib/Palbociclib were purchased from Selleckchem Company; DMSO was purchased from Sigma Company; 384-well plates were purchased from Corning Company.
• (1) Preparation of 1×Kinase buffer. • (2) Preparation of compound concentration gradient: Test concentration of the test compound was started at 1 μM, 10 μM or 30 μM, 3-fold dilution, 10 concentrations, detected in duplicate. […] Liquid handler Echo 550 was used to transfer 250 nL of 100-fold final concentration of the compound to the target plate 384-well plate. […] The 384-well plate was centrifuged at 1000 rpm for 30 seconds, and shaken to mix uniformly. • (10) The conversion rate was read with Caliper EZ Reader.
Where, conversion %_sample is the readings of conversion rate of the sample; conversion %_min: the average value of negative control wells, representing the readings of conversion rate of wells without enzyme activity; conversion %_max: the average value of positive control wells, representing the readings of conversion rate of wells without compound inhibition.
Taking the log value of the concentration as the X-axis, and the percentage inhibition rate as the Y-axis, the dose-effect curve was fitted using the log(inhibitor) vs. response—Variable slope of the analysis software GraphPad Prism 5 so as to obtain the IC50 value of each compound on the enzyme activity.
Y=Bottom+(Top−Bottom)/(1+10^((Log IC50−X)*HillSlope)). Calculation formula: […]

[2] = biological target: T2, CDK9 (Homo sapiens, UniProt P50750); details: read-out: CDK9 (nM) inhibitory IC50
T2 construct: purchased Carna Company
How it was run: (§1)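 Recombinant kinases tested against peptide substrates in 1× kinase buffer, with compound added as a 100-fold DMSO stock. Top concentration 1, 10 or 30 μM, 3-fold dilutions over 10 points, in duplicate. Substrate conversion read by Caliper EZ Reader, normalised to no-enzyme and no-compound controls, and IC50 fitted with a variable-slope log(inhibitor)–response model.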

[3] = biological target: T3, CDK2 (Homo sapiens, UniProt P24941); details: read-out: CDK2 (nM) inhibitory IC50
T3 construct: purchased Carna Company
How it was run: as §1

[4] = biological target: T4, CDK7 (Homo sapiens, UniProt P50613); details: read-out: CDK7 (nM) inhibitory IC50
T4 construct: purchased Carna Company
How it was run: as §1

[5] = biological target: T5, CDK1 (Homo sapiens, UniProt P06493); details: read-out: CDK1 (nM) inhibitory IC50
T5 construct: purchased Carna Company
How it was run: as §1

[6] = biological target: T6, CDK4 (Homo sapiens, UniProt P11802); details: read-out: CDK4 (nM) inhibitory IC50
T6 construct: purchased Carna Company
How it was run: as §1

T5 sequence (P06493 whole entry): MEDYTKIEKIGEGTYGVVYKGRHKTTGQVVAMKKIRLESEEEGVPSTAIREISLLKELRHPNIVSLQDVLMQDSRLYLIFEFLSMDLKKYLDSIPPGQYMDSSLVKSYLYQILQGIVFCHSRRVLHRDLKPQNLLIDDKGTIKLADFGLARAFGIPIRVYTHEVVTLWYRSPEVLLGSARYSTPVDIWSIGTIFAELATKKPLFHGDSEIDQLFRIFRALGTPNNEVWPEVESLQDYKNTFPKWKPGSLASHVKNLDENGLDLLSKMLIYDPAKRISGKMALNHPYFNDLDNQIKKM
T5 sequence (P14635 whole entry partner): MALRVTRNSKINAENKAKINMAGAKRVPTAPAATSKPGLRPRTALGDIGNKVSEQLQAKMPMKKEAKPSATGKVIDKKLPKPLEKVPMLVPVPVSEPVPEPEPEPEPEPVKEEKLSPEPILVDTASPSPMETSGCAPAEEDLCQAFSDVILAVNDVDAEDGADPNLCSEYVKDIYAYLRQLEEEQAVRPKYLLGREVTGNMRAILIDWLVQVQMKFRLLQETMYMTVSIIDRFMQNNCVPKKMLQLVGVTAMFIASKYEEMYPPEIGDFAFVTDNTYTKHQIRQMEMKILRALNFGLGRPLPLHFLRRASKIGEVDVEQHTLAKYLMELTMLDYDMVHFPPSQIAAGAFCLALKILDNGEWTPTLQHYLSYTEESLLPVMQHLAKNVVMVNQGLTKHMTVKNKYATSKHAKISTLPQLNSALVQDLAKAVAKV
T1 sequence (Q00534 whole entry): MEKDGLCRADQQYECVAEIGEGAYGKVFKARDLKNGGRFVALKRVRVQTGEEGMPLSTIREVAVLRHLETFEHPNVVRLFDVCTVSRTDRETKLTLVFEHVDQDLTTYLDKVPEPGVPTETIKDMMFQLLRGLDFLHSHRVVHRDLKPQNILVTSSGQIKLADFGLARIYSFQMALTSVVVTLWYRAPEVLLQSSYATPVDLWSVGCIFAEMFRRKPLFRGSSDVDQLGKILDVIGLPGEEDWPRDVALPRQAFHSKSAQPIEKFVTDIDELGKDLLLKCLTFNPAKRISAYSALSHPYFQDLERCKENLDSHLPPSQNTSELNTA
T1 sequence (P30281 whole entry partner): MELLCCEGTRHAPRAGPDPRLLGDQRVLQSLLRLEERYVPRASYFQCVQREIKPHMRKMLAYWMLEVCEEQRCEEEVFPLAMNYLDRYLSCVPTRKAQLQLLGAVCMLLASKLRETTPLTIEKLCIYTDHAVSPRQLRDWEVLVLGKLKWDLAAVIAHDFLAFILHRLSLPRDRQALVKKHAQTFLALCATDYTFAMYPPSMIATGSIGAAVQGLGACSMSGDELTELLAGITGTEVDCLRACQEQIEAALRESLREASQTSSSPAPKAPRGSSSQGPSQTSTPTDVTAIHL
T6 sequence (P11802 whole entry): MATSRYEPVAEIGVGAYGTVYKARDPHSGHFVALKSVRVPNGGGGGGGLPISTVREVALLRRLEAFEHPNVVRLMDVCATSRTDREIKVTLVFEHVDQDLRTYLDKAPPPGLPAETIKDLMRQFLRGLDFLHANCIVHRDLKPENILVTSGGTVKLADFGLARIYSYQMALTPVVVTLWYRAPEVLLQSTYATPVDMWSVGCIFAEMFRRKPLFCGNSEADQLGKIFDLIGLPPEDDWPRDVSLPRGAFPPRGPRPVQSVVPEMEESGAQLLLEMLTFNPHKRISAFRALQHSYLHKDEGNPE
T6 sequence (P30281 whole entry partner): as the sequence (P30281 whole entry partner) above
T4 sequence (P50613 whole entry): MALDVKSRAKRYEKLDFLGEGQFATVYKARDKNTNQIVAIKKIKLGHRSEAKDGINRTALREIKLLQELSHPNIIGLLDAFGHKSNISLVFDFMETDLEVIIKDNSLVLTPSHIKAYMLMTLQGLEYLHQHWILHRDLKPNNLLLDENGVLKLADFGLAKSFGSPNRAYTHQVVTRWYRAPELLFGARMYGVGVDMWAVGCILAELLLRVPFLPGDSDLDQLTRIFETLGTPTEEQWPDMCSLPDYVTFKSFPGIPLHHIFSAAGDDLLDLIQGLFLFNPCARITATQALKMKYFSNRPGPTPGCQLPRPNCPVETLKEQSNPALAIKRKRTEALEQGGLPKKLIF
T4 sequence (P51946 whole entry partner): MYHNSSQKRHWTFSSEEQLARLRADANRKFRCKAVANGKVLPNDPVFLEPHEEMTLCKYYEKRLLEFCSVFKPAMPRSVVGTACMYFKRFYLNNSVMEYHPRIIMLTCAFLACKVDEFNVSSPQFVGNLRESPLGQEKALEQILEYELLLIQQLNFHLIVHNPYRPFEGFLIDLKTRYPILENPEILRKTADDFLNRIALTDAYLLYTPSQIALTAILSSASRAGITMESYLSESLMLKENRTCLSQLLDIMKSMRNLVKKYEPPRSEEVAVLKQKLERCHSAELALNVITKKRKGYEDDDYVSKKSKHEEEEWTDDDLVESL
T4 sequence (P51948 whole entry partner): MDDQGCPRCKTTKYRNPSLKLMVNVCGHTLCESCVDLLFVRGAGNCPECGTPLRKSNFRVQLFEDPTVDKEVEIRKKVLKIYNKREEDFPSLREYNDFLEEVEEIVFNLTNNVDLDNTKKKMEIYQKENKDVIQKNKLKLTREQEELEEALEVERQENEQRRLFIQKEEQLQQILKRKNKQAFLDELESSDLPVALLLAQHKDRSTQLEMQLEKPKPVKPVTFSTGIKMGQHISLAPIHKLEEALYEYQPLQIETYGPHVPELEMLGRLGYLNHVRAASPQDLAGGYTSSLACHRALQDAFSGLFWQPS
T2 sequence (P50750 whole entry): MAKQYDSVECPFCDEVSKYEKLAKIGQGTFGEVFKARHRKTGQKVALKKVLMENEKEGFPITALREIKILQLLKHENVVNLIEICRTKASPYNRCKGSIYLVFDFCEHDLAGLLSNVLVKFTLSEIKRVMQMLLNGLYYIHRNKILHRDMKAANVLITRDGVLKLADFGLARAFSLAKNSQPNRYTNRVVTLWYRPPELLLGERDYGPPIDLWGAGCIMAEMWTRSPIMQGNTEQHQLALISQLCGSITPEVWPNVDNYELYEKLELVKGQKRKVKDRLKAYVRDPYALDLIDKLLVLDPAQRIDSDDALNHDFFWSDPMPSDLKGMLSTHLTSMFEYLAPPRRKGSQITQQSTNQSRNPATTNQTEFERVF
T2 sequence (O60563 whole entry partner): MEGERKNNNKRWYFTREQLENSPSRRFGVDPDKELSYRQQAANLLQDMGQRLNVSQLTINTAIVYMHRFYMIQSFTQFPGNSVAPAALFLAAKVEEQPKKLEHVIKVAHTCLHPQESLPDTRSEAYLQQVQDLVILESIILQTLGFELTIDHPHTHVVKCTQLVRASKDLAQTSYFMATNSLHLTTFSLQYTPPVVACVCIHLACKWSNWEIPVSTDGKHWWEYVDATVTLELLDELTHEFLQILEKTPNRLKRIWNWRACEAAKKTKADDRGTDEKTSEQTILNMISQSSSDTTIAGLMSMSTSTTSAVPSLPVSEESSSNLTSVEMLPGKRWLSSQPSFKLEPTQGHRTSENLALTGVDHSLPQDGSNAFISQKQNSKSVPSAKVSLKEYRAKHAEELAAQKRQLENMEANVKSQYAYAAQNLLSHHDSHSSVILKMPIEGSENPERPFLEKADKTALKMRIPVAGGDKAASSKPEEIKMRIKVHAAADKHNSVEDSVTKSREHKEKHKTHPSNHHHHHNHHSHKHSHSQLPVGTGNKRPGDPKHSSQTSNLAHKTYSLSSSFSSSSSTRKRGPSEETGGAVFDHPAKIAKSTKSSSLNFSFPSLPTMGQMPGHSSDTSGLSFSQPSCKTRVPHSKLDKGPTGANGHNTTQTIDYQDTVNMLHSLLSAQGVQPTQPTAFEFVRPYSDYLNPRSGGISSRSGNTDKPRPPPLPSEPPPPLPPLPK

| IC50 [1] [nM] | IC50 [2] [nM] | IC50 [3] [nM] | IC50 [4] [nM] | IC50 [5] [nM] | IC50 [6] [nM] | Structure (SMILES) |
| --- | --- | --- | --- | --- | --- | --- |
| 10 to 50 | – | 10 to 50 | – | 100 to 1000 | 10 to 50 | CS(=O)(=O)N1CCC(Nc2ncc(C#N)c(NC3CCCC3)n2)CC1 [Example 1] |
| 10 to 50 | – | 10 to 50 | – | 100 to 1000 | 10 to 50 | CS(=O)(=O)N1CCC(Nc2cc(NC3CCCC3)c(C#N)cn2)CC1 [Example 2] |
| – | – | 10 to 50 | 50 to 100 | – | 100 to 1000 | O=S(=O)(c1ccc(Br)cc1)N1CCC(Nc2ncc(C(F)(F)F)c(C=C3CCCC3)n2)CC1 [Compound 200] |
| 0.5 to 2.5 | – | < 0.5 | – | – | 0.5 to 2.5 | O=S(=O)(c1ccc(C2CCNCC2)cn1)N1CCC(Nc2ncc(C(F)(F)F)c(O[C@H]3CCOC3)n2)CC1 [Compound 177] |
| 10 to 50 | – | < 0.5 | – | – | 2.5 to 10 | O=S(=O)(c1cccc(N2CCNCC2)c1)N1CCC(Nc2ncc(C(F)(F)F)c(O[C@H]3CCOC3)n2)CC1 [Compound 184] |
| 0.5 to 2.5 | – | < 0.5 | – | – | 0.5 to 2.5 | O=S(=O)(c1ccc(N2CC3CNCC3C2)nc1)N1CCC(Nc2ncc(C(F)(F)F)c(O[C@H]3CCOC3)n2)CC1 (some centres unmarked) [Compound 190] |
| 0.5 to 2.5 | – | < 0.5 | – | – | 0.5 to 2.5 | C[C@@H]1CN(c2ccc(S(=O)(=O)N3CCC(Nc4ncc(C(F)(F)F)c(O[C@H]5CCOC5)n4)CC3)cc2)C[C@H](C)N1 [Example 169] |
| 0.5 to 2.5 | – | < 0.5 | – | – | 0.5 to 2.5 | Cc1cc(S(=O)(=O)N2CCC(Nc3ncc(C(F)(F)F)c(O[C@H]4CCOC4)n3)CC2)ccc1C1=CCCNC1 [Compound 196] |
| 0.5 to 2.5 | – | < 0.5 | – | – | 0.5 to 2.5 | O=S(=O)(c1ccc(C2CCNC2)cc1)N1CCC(Nc2ncc(C(F)(F)F)c(O[C@H]3CCOC3)n2)CC1 (some centres unmarked) [Compound 145] |
| 0.5 to 2.5 | – | 0.5 to 2.5 | – | – | 0.5 to 2.5 | O=S(=O)(c1ccc(N2CCNCC2)c(F)c1)N1CCC(Nc2ncc(C(F)(F)F)c(O[C@H]3CCOC3)n2)CC1 [Compound 172] |
| 0.5 to 2.5 | – | 0.5 to 2.5 | – | – | 0.5 to 2.5 | O=S(=O)(c1ccc(N2CCNC(C(F)(F)F)C2)nc1)N1CCC(Nc2ncc(C(F)(F)F)c(O[C@H]3CCOC3)n2)CC1 (some centres unmarked) [Compound 167] |
| 10 to 50 | – | 2.5 to 10 | – | – | 2.5 to 10 | O=S(=O)([C@@H]1CCCNC1)N1CCC(Nc2ncc(C(F)(F)F)c(NC3CCCC3)n2)CC1 [Compound 162] |
| 0.5 to 2.5 | – | < 0.5 | – | – | 0.5 to 2.5 | Cc1cc(S(=O)(=O)N2CCC(Nc3ncc(C(F)(F)F)c(O[C@H]4CCOC4)n3)CC2)ccc1N1CCNCC1 [Compound 171] |
| 0.5 to 2.5 | – | 0.5 to 2.5 | – | – | 0.5 to 2.5 | CN1CCC(c2ccc(S(=O)(=O)N3CCC(Nc4ncc(C#N)c(NC5CCCC5)n4)CC3)cc2)CC1 [Example 17, 4-(Cyclopentylamino)-2-((1-((4-(1-methylpiperidin-4-yl)phenyl)sulfonyl)piperidin-4-yl)amino)pyrimidine-5-carbonitrile] |
| 0.5 to 2.5 | – | < 0.5 | – | – | 0.5 to 2.5 | Cc1nnc(-c2ccc(S(=O)(=O)N3CCC(Nc4ncc(C(F)(F)F)c(O[C@H]5CCOC5)n4)CC3)cc2)o1 [Compound 161] |
| 0.5 to 2.5 | – | < 0.5 | – | – | 0.5 to 2.5 | C[C@H]1CN(c2ccc(S(=O)(=O)N3CCC(Nc4ncc(C(F)(F)F)c(O[C@H]5CCOC5)n4)CC3)cc2)CCN1 [Compound 186] |
| 0.5 to 2.5 | – | < 0.5 | – | – | 0.5 to 2.5 | C[C@H]1CN(c2ccc(S(=O)(=O)N3CCC(Nc4ncc(C(F)(F)F)c(O[C@H]5CCOC5)n4)CC3)cn2)CCN1 [Compound 188] |
| 0.5 to 2.5 | – | < 0.5 | – | – | 0.5 to 2.5 | O=S(=O)(c1ccc(N2CCNCC2)cn1)N1CCC(Nc2ncc(C(F)(F)F)c(O[C@H]3CCOC3)n2)CC1 [Compound 178] |
| 10 to 50 | – | 0.5 to 2.5 | – | 10 to 50 | 10 to 50 | Cn1cc(S(=O)(=O)N2CCC(Nc3ncc(C#N)c(N[C@H]4CC[C@@H](O)C4)n3)CC2)cn1 (racemic) [Example 11] |
| 0.5 to 2.5 | – | < 0.5 | – | – | < 0.5 | CN1CC=C(c2ccc(S(=O)(=O)N3CCC(Nc4ncc(C(F)(F)F)c(O[C@H]5CCOC5)n4)CC3)cc2)CC1 [Compound 203] |
| 10 to 50 | – | 0.5 to 2.5 | – | – | 2.5 to 10 | N#CC1CCN(c2ccc(S(=O)(=O)N3CCC(Nc4ncc(C(F)(F)F)c(O[C@H]5CCOC5)n4)CC3)cc2)CC1 [Compound 143] |
| 0.5 to 2.5 | – | < 0.5 | – | – | 0.5 to 2.5 | C[C@H]1CN(c2ccc(S(=O)(=O)N3CCC(Nc4ncc(C(F)(F)F)c(O[C@H]5CCOC5)n4)CC3)cn2)C[C@H](C)N1 [Compound 170] |
| 0.5 to 2.5 | – | 0.5 to 2.5 | – | – | 0.5 to 2.5 | COc1cc(S(=O)(=O)N2CCC(Nc3ncc(C(F)(F)F)c(O[C@H]4CCOC4)n3)CC2)ccc1C1=CCNCC1 [Compound 194] |

Further lines, the compound ahead of its results:

| Structure (SMILES) | IC50 [1] [nM] | IC50 [2] [nM] | IC50 [3] [nM] | IC50 [4] [nM] | IC50 [5] [nM] | IC50 [6] [nM] |
| --- | --- | --- | --- | --- | --- | --- |
| Cn1cnc(S(=O)(=O)N2CCC(Nc3ncc(C#N)c(NC4CCCC4)n3)CC2)c1 [Compound 34] | 10 to 50 | 100 to 1000 | 0.5 to 2.5 | 100 to 1000 | 10 to 50 | 2.5 to 10 |
| Cn1cc(-c2ccc(S(=O)(=O)N3CCC(Nc4ncc(C#N)c(NC5CCCC5)n4)CC3)cc2)cn1 [Compound 49] | 0.5 to 2.5 | – | 0.5 to 2.5 | – | 10 to 50 | 2.5 to 10 |
| Cn1cnc(S(=O)(=O)N2CCC(Nc3ncc(C(F)(F)F)c(NC4CCCC4)n3)CC2)c1 [Compound 35] | 50 to 100 | – | 0.5 to 2.5 | – | 10 to 50 | 10 to 50 |
| CC(C)Nc1nc(NC2CCN(S(C)(=O)=O)CC2)ncc1C#N [Compound 28] | 50 to 100 | – | 10 to 50 | – | 100 to 1000 | 50 to 100 |
| O=S(=O)(c1ccc(N2CC3CCC(C2)N3)nc1)N1CCC(Nc2ncc(C(F)(F)F)c(O[C@H]3CCOC3)n2)CC1 [Compound 182] | 0.5 to 2.5 | – | < 0.5 | – | – | 0.5 to 2.5 |
| O=S(=O)(c1ccc(C2CCNCC2)cc1)N1CCC(Nc2ncc(C(F)(F)F)c(O[C@H]3CCOC3)n2)CC1 [Compound 130] | 0.5 to 2.5 | – | < 0.5 | – | – | 0.5 to 2.5 |
| N#Cc1cnc(NC2CCN(S(=O)(=O)c3ccc(C4=CCNCC4)cc3)CC2)nc1O[C@H]1CCOC1 [Compound 104] | 0.5 to 2.5 | – | 0.5 to 2.5 | – | – | 2.5 to 10 |
| Cn1cc(-c2ccc(S(=O)(=O)N3CCC(Nc4ncc(C#N)c(N[C@H]5CC[C@@H](O)C5)n4)CC3)cc2)cn1 (relative stereo) [Compound 62] | 0.5 to 2.5 | – | 0.5 to 2.5 | – | – | 0.5 to 2.5 |
| Cn1cc(S(=O)(=O)N2CCC(Nc3ncc(C(F)(F)F)c(NC4CCCC4)n3)CC2)cn1 [Compound 32] | 10 to 50 | – | 0.5 to 2.5 | – | 10 to 50 | 10 to 50 |
| N#Cc1cnc(NC2CCN(S(=O)(=O)c3ccc(C4CCNCC4)cc3)CC2)nc1NC1CCCC1 [Compound 101] | 0.5 to 2.5 | – | 0.5 to 2.5 | – | – | 0.5 to 2.5 |
| Cn1cc(S(=O)(=O)N2CCC(Nc3ncc(C#N)c(N[C@@H]4CCC[C@H]4O)n3)CC2)cn1 [Compound 45] | 100 to 1000 | – | 2.5 to 10 | – | 10 to 50 | 10 to 50 |
| O=S(=O)(c1ccc(N2C3CNCC2C3)nc1)N1CCC(Nc2ncc(C(F)(F)F)c(O[C@H]3CCOC3)n2)CC1 [Compound 189] | 0.5 to 2.5 | – | < 0.5 | – | – | 0.5 to 2.5 |
| Cn1cc(S(=O)(=O)N2CCC(Nc3ncc([N+](=O)[O-])c(NC4CCCC4)n3)CC2)cn1 [Compound 84] | 0.5 to 2.5 | – | 10 to 50 | – | – | 2.5 to 10 |
| O=S(=O)(c1ccc(C2=CCNCC2)cc1)N1CCC(Nc2ncc(C(F)(F)F)c(N[C@H]3CCOC3)n2)CC1 [Compound 93] | 0.5 to 2.5 | – | 0.5 to 2.5 | – | – | 2.5 to 10 |
| N#Cc1cnc(NC2CCN(S(=O)(=O)c3ccc(N4CCOCC4)cc3)CC2)nc1NC1CCCC1 [Compound 94] | 10 to 50 | – | 0.5 to 2.5 | – | – | 2.5 to 10 |
